From paper PMC11995724, “Antibiotic target discovery by integrated phenotypic and activity-based profiling of electrophilic fragments” (Cell chemical biology, 2025)
Structures can show the parent of a compound that is named as a salt.

Assay: in vitro
Conditions: human, hek293t cells

Structure (SMILES) | viability at 48 h, 25 µM [%]
O=C(CCl)Nc1ccc(Cl)cc1[N+](=O)[O-] [5-N08, 2-chloro-N-(4-chloro-2-nitrophenyl)acetamide] | 76.9
CC(Cl)C(=O)NC(C)C(=O)Nc1ccc(-n2cncn2)cc1 (stereo not shown) [7-P07, 2-chloro-N-(1-{[4-(1H-1,2,4-triazol-1-yl)phenyl]carbamoyl}ethyl)propanamide] | 98.6
C=CC(=O)N1CCc2[nH]cnc2C1c1ccnn1C (stereo not shown) [3-A07, 1-[4-(1-methyl-1H-pyrazol-5-yl)-1H,4H,5H,6H,7H-imidazo[4,5-c]pyridin-5-yl]prop-2-en-1-one] | 29.2
O=C(CCl)Nc1nc2c(s1)CCc1ccccc1-2 [6-D03, 2-chloro-N-{4H,5H-naphtho[1,2-d][1,3]thiazol-2-yl}acetamide] | 0.611
C=CC(=O)NCc1c(F)cccc1S(=O)(=O)N(C)C [3-L15, N-{[2-(dimethylsulfamoyl)-6-fluorophenyl]methyl}prop-2-enamide] | 83.2
C=CC(=O)NC(c1ccc(F)cc1)c1ccn(C)n1 (stereo not shown) [3-J20, N-[(4-fluorophenyl)(1-methyl-1H-pyrazol-3-yl)methyl]prop-2-enamide] | 99.9
C=CC(=O)NC(Cn1ccccc1=O)c1ccccc1 (stereo not shown) [2-B21, N-[2-(2-oxo-1,2-dihydropyridin-1-yl)-1-phenylethyl]prop-2-enamide] | 72.3
C[C@@H](NC(=O)CCl)c1cnnn1C [7-F16, 2-chloro-N-[(1R)-1-(1-methyl-1H-1,2,3-triazol-5-yl)ethyl]acetamide] | 44.8
C=CC(=O)NC[C@@H]1C[C@H](F)CN1Cc1ccnn1C [2-E05, N-{[(2S,4S)-4-fluoro-1-[(1-methyl-1H-pyrazol-5-yl)methyl]pyrrolidin-2-yl]methyl}prop-2-enamide] | 78.5
Cc1cccc(NC(=O)[C@@H]2CCCN2C(=O)CCl)n1 [5-C06, (2S)-1-(2-chloroacetyl)-N-(6-methylpyridin-2-yl)pyrrolidine-2-carboxamide] | 0.946
C=CCNC(=O)C(C#N)=Cc1ccc(-c2ccc(F)cc2)s1 [9-C12, 2-cyano-3-[5-(4-fluorophenyl)thiophen-2-yl]-N-(prop-2-en-1-yl)prop-2-enamide] | 111
CCCNC(=O)C(C#N)=Cc1ccc(-n2cncn2)c(C)c1 [9-C05, 2-cyano-3-[3-methyl-4-(1H-1,2,4-triazol-1-yl)phenyl]-N-propylprop-2-enamide] | 96
C=CC(=O)NCc1cn(C)nc1-c1ccccn1 [2-H03, N-{[1-methyl-3-(pyridin-2-yl)-1H-pyrazol-4-yl]methyl}prop-2-enamide] | 79.4
C=CC(=O)N(C)CCCn1c(=O)c(C)nc2ccccc21 [1-I08, N-methyl-N-[3-(3-methyl-2-oxo-1,2-dihydroquinoxalin-1-yl)propyl]prop-2-enamide] | 76.3
O=C(CCl)c1c(-c2ccc(F)cc2)[nH]c2ccccc12 [10-P04, 2-chloro-1-[2-(4-fluorophenyl)-1H-indol-3-yl]ethan-1-one] | 4.16
C=CC(=O)NCC1SCCS1 [1-C03, N-[(1,3-dithiolan-2-yl)methyl]prop-2-enamide] | 87.6
Cc1cc(C(=O)CCl)co1 [10-A13, 2-chloro-1-(5-methylfuran-3-yl)ethan-1-one] | 41.5
Cc1cccc(NC(=O)C(C)Cl)c1 (stereo not shown) [5-P10, 2-chloro-N-(3-methylphenyl)propanamide] | 96.2
Cc1ccc(C)c(CN(CCO)C(=O)CCl)c1 [5-K20, 2-chloro-N-[(2,5-dimethylphenyl)methyl]-N-(2-hydroxyethyl)acetamide] | 2.44
CC(Cl)C(=O)NC1CS(=O)(=O)Cc2ccccc21 (stereo not shown) [6-L20, 2-chloro-N-(2,2-dioxo-3,4-dihydro-1H-2lambda6-benzothiopyran-4-yl)propanamide] | 93.5
C=CC(=O)NC(C)Cn1cncn1 (stereo not shown) [3-C11, N-[1-(1H-1,2,4-triazol-1-yl)propan-2-yl]prop-2-enamide] | 37.9
CN(C)C(CNC(=O)CCl)c1ccccc1 (stereo not shown) [4-B21, 2-chloro-N-[2-(dimethylamino)-2-phenylethyl]acetamide hydrochloride] | 79.8
C=CC(=O)N(Cc1cccc2cccnc12)C1CCCN(CC)C1 (stereo not shown) [1-H11, N-(1-ethylpiperidin-3-yl)-N-[(quinolin-8-yl)methyl]prop-2-enamide] | 55.3
C=CC(=O)N1CCC(C(=O)N2CCC(OC)(C(F)(F)F)CC2)CC1 [3-E08, 1-{4-[4-methoxy-4-(trifluoromethyl)piperidine-1-carbonyl]piperidin-1-yl}prop-2-en-1-one] | 98.2
COc1cc(C=C(C#N)C(=O)Nc2ccc3c(c2)OCCO3)ccc1O [8-N06, 2-cyano-N-(2,3-dihydro-1,4-benzodioxin-6-yl)-3-(4-hydroxy-3-methoxyphenyl)prop-2-enamide] | 91.5
COc1cccc(NC(=O)C(C#N)=Cc2ccc(C)cc2C)c1 [8-C16, 2-cyano-3-(2,4-dimethylphenyl)-N-(3-methoxyphenyl)prop-2-enamide] | 91.5

Structure (SMILES) | viability at 48 h, 25 µM [%]
O=C(CCl)N1CC(NC(=O)C(F)(F)F)CCC1C(F)(F)F (stereo not shown) [5-O18, N-[1-(2-chloroacetyl)-6-(trifluoromethyl)piperidin-3-yl]-2,2,2-trifluoroacetamide] | 6.17
O=C(c1ccccc1)c1cc(Cl)ccc1N1C(=O)C=CC1=O [10-M16, 1-(2-benzoyl-4-chlorophenyl)-2,5-dihydro-1H-pyrrole-2,5-dione] | 48.7
C=CC(=O)NCc1ccccc1N1CCCC(C(N)=O)C1 (stereo not shown) [3-L21, 1-{2-[(prop-2-enamido)methyl]phenyl}piperidine-3-carboxamide] | 68.9
C=CC(=O)N(C)CC(=O)N1CCn2cc(C(F)(F)F)nc2C1 [3-A04, N-methyl-N-{2-oxo-2-[2-(trifluoromethyl)-5H,6H,7H,8H-imidazo[1,2-a]pyrazin-7-yl]ethyl}prop-2-enamide] | 60.6
C=CC(=O)NC(C)c1ccc(-n2ccnn2)cc1 (stereo not shown) [3-B13, N-{1-[4-(1H-1,2,3-triazol-1-yl)phenyl]ethyl}prop-2-enamide] | 59.2
C=CC(=O)NC1(c2cccc(F)c2)CCOCC1 [1-M04, N-[4-(3-fluorophenyl)oxan-4-yl]prop-2-enamide] | 71.1
C=CC(=O)N(C)Cc1nnc(C2CC2)n1C [2-H11, N-[(5-cyclopropyl-4-methyl-4H-1,2,4-triazol-3-yl)methyl]-N-methylprop-2-enamide] | 72.8
C=CC(=O)NCC1CC(CC(=O)O)CO1 (stereo not shown) [2-E03, 2-{5-[(prop-2-enamido)methyl]oxolan-3-yl}acetic acid] | 182
COc1ccc(S(N)(=O)=O)cc1NC(=O)CCl [6-O03, 2-chloro-N-(2-methoxy-5-sulfamoylphenyl)acetamide] | 0.606
CC(Cl)C(=O)Nc1cccc(S(=O)(=O)N(C)C)c1 (stereo not shown) [5-A07, 2-chloro-N-[3-(dimethylsulfamoyl)phenyl]propanamide] | 55.5
CC(Cl)C(=O)N(C)c1ccccc1 (stereo not shown) [5-D06, 2-chloro-N-methyl-N-phenylpropanamide] | 102
C=CC(=O)N(Cc1cn2ccccc2n1)C1CC1 [3-J21, N-cyclopropyl-N-({imidazo[1,2-a]pyridin-2-yl}methyl)prop-2-enamide] | 73.1
COc1ccc(C(NC(=O)CCl)C(C)C)cc1 (stereo not shown) [4-A13, 2-chloro-N-[1-(4-methoxyphenyl)-2-methylpropyl]acetamide] | 11.2
Cn1ncc2ccc(CNC(=O)N3CCSSCC3)cc21 [10-A20, N-[(1-methyl-1H-indazol-6-yl)methyl]-1,2,5-dithiazepane-5-carboxamide] | 93.8
CC(Cl)C(=O)NCc1nnnn1CC1CC1 (stereo not shown) [6-F14, 2-chloro-N-{[1-(cyclopropylmethyl)-1H-1,2,3,4-tetrazol-5-yl]methyl}propanamide] | 115
COc1ccc(C2=NN(C(=O)CCl)C(c3ccco3)C2)cc1 (stereo not shown) [4-N19, 2-chloro-1-[5-(furan-2-yl)-3-(4-methoxyphenyl)-4,5-dihydro-1H-pyrazol-1-yl]ethan-1-one] | 0.0172
N#CC(=CC=Cc1ccccc1[N+](=O)[O-])C(=O)Nc1ccccc1 [8-P20, 2-cyano-5-(2-nitrophenyl)-N-phenylpenta-2,4-dienamide] | 48
C=CC(=O)Nc1onc(C2CCCCC2)c1CC(C)C [1-P12, N-[3-cyclohexyl-4-(2-methylpropyl)-1,2-oxazol-5-yl]prop-2-enamide] | 0.308
CC(Cl)C(=O)NCc1nc2c(s1)CC(c1ccccc1)CC2 (stereo not shown) [7-A05, 2-chloro-N-[(6-phenyl-4,5,6,7-tetrahydro-1,3-benzothiazol-2-yl)methyl]propanamide] | 57.5
Cc1c(NC(=O)CCl)cccc1[N+](=O)[O-] [4-E07, 2-chloro-N-(2-methyl-3-nitrophenyl)acetamide] | 1.23
CC(Cl)C(=O)N(Cc1ccccc1)Cc1ccccc1 (stereo not shown) [5-K19, N,N-dibenzyl-2-chloropropanamide] | 82.1
NS(=O)(=O)c1cccc2cc(NC(=O)CCl)ccc12 [5-K16, 2-chloro-N-(5-sulfamoylnaphthalen-2-yl)acetamide] | 1.61
CC(Cl)C(=O)NC1CCC(C)(C)c2ccccc21 (stereo not shown) [6-H21, 2-chloro-N-(4,4-dimethyl-1,2,3,4-tetrahydronaphthalen-1-yl)propanamide] | 100
C=CC(=O)NCc1ccc(C(=O)N2CCC(C(C)(C)O)CC2)cc1 [2-J20, N-({4-[4-(2-hydroxypropan-2-yl)piperidine-1-carbonyl]phenyl}methyl)prop-2-enamide] | 74.2
Cc1noc(C)c1C(=O)CCl [10-K13, 2-chloro-1-(3,5-dimethyl-1,2-oxazol-4-yl)ethan-1-one] | 56.9
CN(Cc1ccc(-c2ccc(Cl)cc2)o1)C(=O)CCl [5-I13, 2-chloro-N-{[5-(4-chlorophenyl)furan-2-yl]methyl}-N-methylacetamide] | 16.8
